Legend:
Assay in all cases: cells
Details in all cases: Homo sapiens
COLO-792 = format: functional, cell-based
Description: SANGER: Inhibition of human COLO-792 cell growth in a cell viability assay.

Ca9-22 = format: functional, cell-based
Description: SANGER: Inhibition of human Ca9-22 cell growth in a cell viability assay.

D-247MG = format: functional, cell-based
Description: SANGER: Inhibition of human D-247MG cell growth in a cell viability assay.

D-336MG = format: functional, cell-based
Description: SANGER: Inhibition of human D-336MG cell growth in a cell viability assay.

Detroit 562 = format: functional, cell-based
Description: SANGER: Inhibition of human Detroit562 cell growth in a cell viability assay.

EFO-21 = format: functional, cell-based
Description: SANGER: Inhibition of human EFO-21 cell growth in a cell viability assay.

GP5d = format: functional, cell-based
Description: SANGER: Inhibition of human GP5d cell growth in a cell viability assay.

HCC38 = format: functional, cell-based
Description: SANGER: Inhibition of human HCC38 cell growth in a cell viability assay.

HO-1-N-1 = format: functional, cell-based
Description: SANGER: Inhibition of human HO-1-N-1 cell growth in a cell viability assay.

JEG-3 = format: functional, cell-based
Description: SANGER: Inhibition of human JEG-3 cell growth in a cell viability assay.

KYSE-180 = format: functional, cell-based
Description: SANGER: Inhibition of human KYSE-180 cell growth in a cell viability assay.

KYSE-510 = format: functional, cell-based
Description: SANGER: Inhibition of human KYSE-510 cell growth in a cell viability assay.

LCLC-97TM1 = format: functional, cell-based
Description: SANGER: Inhibition of human LCLC-97TM1 cell growth in a cell viability assay.

LN-405 = format: functional, cell-based
Description: SANGER: Inhibition of human LN-405 cell growth in a cell viability assay.

M14 = format: functional, cell-based
Description: SANGER: Inhibition of human M14 cell growth in a cell viability assay.

MC-IXC = format: functional, cell-based
Description: SANGER: Inhibition of human MC-IXC cell growth in a cell viability assay.

MCF7 = format: functional, cell-based
Description: SANGER: Inhibition of human MCF7 cell growth in a cell viability assay.

MEL-JUSO = format: functional, cell-based
Description: SANGER: Inhibition of human MEL-JUSO cell growth in a cell viability assay.

MKN-28 = format: functional, cell-based
Description: SANGER: Inhibition of human MKN28 cell growth in a cell viability assay.

MOLT-13 = format: functional, cell-based
Description: SANGER: Inhibition of human MOLT-13 cell growth in a cell viability assay.

NCI-H1993 = format: functional, cell-based
Description: SANGER: Inhibition of human NCI-H1993 cell growth in a cell viability assay.

NCI-H2009 = format: functional, cell-based
Description: SANGER: Inhibition of human NCI-H2009 cell growth in a cell viability assay.

NCI-H630 = format: functional, cell-based
Description: SANGER: Inhibition of human NCI-H630 cell growth in a cell viability assay.

NCI-H650 = format: functional, cell-based
Description: SANGER: Inhibition of human NCI-H650 cell growth in a cell viability assay.

OVCAR-8 = format: functional, cell-based
Description: SANGER: Inhibition of human OVCAR-8 cell growth in a cell viability assay.

RD = format: functional, cell-based
Description: SANGER: Inhibition of human RD cell growth in a cell viability assay.

S-117 = format: functional, cell-based
Description: SANGER: Inhibition of human S-117 cell growth in a cell viability assay.

SBC-5 = format: functional, cell-based
Description: SANGER: Inhibition of human SBC-5 cell growth in a cell viability assay.

SCC-4 = format: functional, cell-based
Description: SANGER: Inhibition of human SCC-4 cell growth in a cell viability assay.

SK-HEP1 = format: functional, cell-based, SK-HEP-1
Description: SANGER: Inhibition of human SK-HEP-1 cell growth in a cell viability assay.

SK-LU-1 = format: functional, cell-based
Description: SANGER: Inhibition of human SK-LU-1 cell growth in a cell viability assay.

SK-MEL-24 = format: functional, cell-based
Description: SANGER: Inhibition of human SK-MEL-24 cell growth in a cell viability assay.

SNU-387 = format: functional, cell-based
Description: SANGER: Inhibition of human SNU-387 cell growth in a cell viability assay.

SNU-423 = format: functional, cell-based
Description: SANGER: Inhibition of human SNU-423 cell growth in a cell viability assay.

SW1463 = format: functional, cell-based
Description: SANGER: Inhibition of human SW1463 cell growth in a cell viability assay.

SW1710 = format: functional, cell-based
Description: SANGER: Inhibition of human SW1710 cell growth in a cell viability assay.

SW-620 = format: functional, cell-based
Description: SANGER: Inhibition of human SW620 cell growth in a cell viability assay.

SAOS-2 = format: functional, cell-based
Description: SANGER: Inhibition of human Saos-2 cell growth in a cell viability assay.

SiHa = format: functional, cell-based
Description: SANGER: Inhibition of human SiHa cell growth in a cell viability assay.

T98G = format: functional, cell-based
Description: SANGER: Inhibition of human T98G cell growth in a cell viability assay.

23132-87 = format: functional, cell-based
Description: SANGER: Inhibition of human 23132-87 cell growth in a cell viability assay.

5637 = format: functional, cell-based
Description: SANGER: Inhibition of human 5637 cell growth in a cell viability assay.

639-V = format: functional, cell-based
Description: SANGER: Inhibition of human 639-V cell growth in a cell viability assay.

647-V = format: functional, cell-based
Description: SANGER: Inhibition of human 647-V cell growth in a cell viability assay.

A2058 = format: functional, cell-based
Description: SANGER: Inhibition of human A2058 cell growth in a cell viability assay.

ABC-1 = format: functional, cell-based
Description: SANGER: Inhibition of human ABC-1 cell growth in a cell viability assay.

BEN = format: functional, cell-based
Description: SANGER: Inhibition of human BEN cell growth in a cell viability assay.

BHT-101 = format: functional, cell-based
Description: SANGER: Inhibition of human BHT-101 cell growth in a cell viability assay.

BT-20 = format: functional, cell-based
Description: SANGER: Inhibition of human BT-20 cell growth in a cell viability assay.

C32 = format: functional, cell-based
Description: SANGER: Inhibition of human C32 cell growth in a cell viability assay.

TYK-nu = format: functional, cell-based
Description: SANGER: Inhibition of human TYK-nu cell growth in a cell viability assay.

YAPC = format: functional, cell-based
Description: SANGER: Inhibition of human YAPC cell growth in a cell viability assay.

CAPAN-1 = format: functional, cell-based
Description: SANGER: Inhibition of human CAPAN-1 cell growth in a cell viability assay.

## Cn1cc(/C=C2\C(=O)Nc3cccnc32)c2ccccc21
COLO-792
  IC50: > 2000 nM
Ca9-22
  IC50: > 2000 nM
D-247MG
  IC50: > 2000 nM
D-336MG
  IC50: > 2000 nM
Detroit 562
  IC50: > 2000 nM
EFO-21
  IC50: > 2000 nM
GP5d
  IC50: > 2000 nM
HCC38
  IC50: > 2000 nM
HO-1-N-1
  IC50: > 2000 nM
JEG-3
  IC50: > 2000 nM
KYSE-180
  IC50: > 2000 nM
KYSE-510
  IC50: > 2000 nM
LCLC-97TM1
  IC50: > 2000 nM
LN-405
  IC50: > 2000 nM
M14
  IC50: > 2000 nM
MC-IXC
  IC50: > 2000 nM
MCF7
  IC50: > 2000 nM
MEL-JUSO
  IC50: > 2000 nM
MKN-28
  IC50: > 2000 nM
MOLT-13
  IC50: > 2000 nM
NCI-H1993
  IC50: > 2000 nM
NCI-H2009
  IC50: > 2000 nM
NCI-H630
  IC50: > 2000 nM
NCI-H650
  IC50: > 2000 nM
OVCAR-8
  IC50: > 2000 nM
RD
  IC50: > 2000 nM
S-117
  IC50: > 2000 nM
SBC-5
  IC50: > 2000 nM
SCC-4
  IC50: > 2000 nM
SK-HEP1
  IC50: > 2000 nM
SK-LU-1
  IC50: > 2000 nM
SK-MEL-24
  IC50: > 2000 nM
SNU-387
  IC50: > 2000 nM
SNU-423
  IC50: > 2000 nM
SW1463
  IC50: > 2000 nM
SW1710
  IC50: > 2000 nM
SW-620
  IC50: > 2000 nM
SAOS-2
  IC50: > 2000 nM
SiHa
  IC50: > 2000 nM
T98G
  IC50: > 2000 nM
23132-87
  IC50: > 2000 nM
5637
  IC50: > 2000 nM
639-V
  IC50: > 2000 nM
647-V
  IC50: > 2000 nM
A2058
  IC50: > 2000 nM
ABC-1
  IC50: > 2000 nM
BEN
  IC50: > 2000 nM
BHT-101
  IC50: > 2000 nM
BT-20
  IC50: > 2000 nM
C32
  IC50: > 2000 nM
TYK-nu
  IC50: > 2000 nM
YAPC
  IC50: > 2000 nM
CAPAN-1
  IC50: > 2000 nM

## COc1cc(Nc2c(C#N)cnc3cc(OCCCN4CCN(C)CC4)c(OC)cc23)c(Cl)cc1Cl [BOSUTINIB]
COLO-792
  IC50: > 2000 nM
Ca9-22
  IC50: 1560 nM
D-247MG
  IC50: > 2000 nM
D-336MG
  IC50: > 2000 nM
Detroit 562
  IC50: > 2000 nM
EFO-21
  IC50: > 2000 nM
GP5d
  IC50: > 2000 nM
HCC38
  IC50: > 2000 nM
HO-1-N-1
  IC50: 1260 nM
JEG-3
  IC50: > 2000 nM
KYSE-180
  IC50: > 2000 nM
KYSE-510
  IC50: > 2000 nM
LCLC-97TM1
  IC50: > 2000 nM
LN-405
  IC50: > 2000 nM
M14
  IC50: > 2000 nM
MC-IXC
  IC50: > 2000 nM
MCF7
  IC50: > 2000 nM
MEL-JUSO
  IC50: > 2000 nM
MKN-28
  IC50: > 2000 nM
MOLT-13
  IC50: > 2000 nM
NCI-H1993
  IC50: > 2000 nM
NCI-H2009
  IC50: > 2000 nM
NCI-H630
  IC50: > 2000 nM
NCI-H650
  IC50: > 2000 nM
OVCAR-8
  IC50: > 2000 nM
RD
  IC50: > 2000 nM
S-117
  IC50: > 2000 nM
SBC-5
  IC50: > 2000 nM
SCC-4
  IC50: > 2000 nM
SK-HEP1
  IC50: > 2000 nM
SK-LU-1
  IC50: > 2000 nM
SK-MEL-24
  IC50: > 2000 nM
SNU-387
  IC50: > 2000 nM
SNU-423
  IC50: > 2000 nM
SW1463
  IC50: > 2000 nM
SW1710
  IC50: > 2000 nM
SW-620
  IC50: > 2000 nM
SAOS-2
  IC50: > 2000 nM
SiHa
  IC50: > 2000 nM
T98G
  IC50: > 2000 nM
23132-87
  IC50: > 2000 nM
5637
  IC50: 1140 nM
639-V
  IC50: > 2000 nM
647-V
  IC50: > 2000 nM
A2058
  IC50: > 2000 nM
ABC-1
  IC50: > 2000 nM
BEN
  IC50: > 2000 nM
BHT-101
  IC50: 466 nM
BT-20
  IC50: > 2000 nM
C32
  IC50: > 2000 nM
TYK-nu
  IC50: > 2000 nM
YAPC
  IC50: > 2000 nM
CAPAN-1
  IC50: > 2000 nM

Reference: ChEMBL document CHEMBL1201861, “Genomics of Drug Sensitity in Cancer screening data, Wellcome Trust Sanger Institute”
